Publication PMC9293909 (Nature Communications, 2022)
Values joined by “and” are separate entries in the source; they are usually repeats but may differ in a detail not shown here. Equal values may be shown once. Read-outs that look alike come from different tables or passages of the source.

Key:
respiration (f, VT, VE) = experiment: Urethane-anaesthetised rat, respiration
Description: The femoral vein was catheterised for drug delivery.
Adult male Sprague–Dawley rats (400-500 g) were anaesthetised with urethane and instrumented as described above, with the exception that the arterial cannulation was not performed.
Changes in f, VT, and VE were measured. If the dosing occurred close to a respiratory event such as a sigh a second IV dose was administered, with 20 min recovery periods either side of the injection.

hA1R:Gob [1] = target: T1, hA1R:Gob (Homo sapiens, UniProt P30542); experiment: cAMP inhibition in PTX-treated CHO-K1-hA1R cells with PTX-insensitive Gob; conditions: for cAMP accumulation, PTX-insensitive Gob (Fig. 2b): forskolin co-stimulation, individual repeats and mean; for Emax: read-out: Emax Gob; for Bias factor (Δ(τ/KA)) Gob: relative to adenosine, operational model
Target sequence in this assay (P30542 whole entry): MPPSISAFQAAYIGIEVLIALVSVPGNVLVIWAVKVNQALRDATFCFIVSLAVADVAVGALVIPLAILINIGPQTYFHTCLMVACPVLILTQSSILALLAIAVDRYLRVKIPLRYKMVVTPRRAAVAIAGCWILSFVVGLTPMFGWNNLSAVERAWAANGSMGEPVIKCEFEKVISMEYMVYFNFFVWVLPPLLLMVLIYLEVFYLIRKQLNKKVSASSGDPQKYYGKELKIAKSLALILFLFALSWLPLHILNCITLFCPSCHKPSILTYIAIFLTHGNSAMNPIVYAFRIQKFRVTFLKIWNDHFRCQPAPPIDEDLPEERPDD
Target sequence in this assay (P09471 2-354 isoform P09471-2 C351I partner limits assumed): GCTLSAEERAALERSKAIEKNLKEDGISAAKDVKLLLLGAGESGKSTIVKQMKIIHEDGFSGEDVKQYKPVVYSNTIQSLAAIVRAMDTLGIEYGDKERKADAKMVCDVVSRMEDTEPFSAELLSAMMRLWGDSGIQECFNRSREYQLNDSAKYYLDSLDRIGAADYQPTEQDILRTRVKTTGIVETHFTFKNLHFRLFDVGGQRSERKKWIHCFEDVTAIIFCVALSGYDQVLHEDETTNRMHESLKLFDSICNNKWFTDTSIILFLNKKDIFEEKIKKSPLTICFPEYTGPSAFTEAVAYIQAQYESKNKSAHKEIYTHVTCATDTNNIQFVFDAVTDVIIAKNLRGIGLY
Description: Cells were then incubated for 24 h before addition of 100 ng/ml PTX, to inhibit activity of endogenous Gαi/o, and then incubated for a further 16-18 h. Transfected cells were then assayed as per cAMP inhibition experiments, but co-stimulated with agonist and 100 nM forskolin.
All in vitro cell signalling assay data was analysed using Prism 8.4 (Graphpad software, San Diego, CA), with all concentration-response curves being fitted using a 3 parameter logistic equation to calculate response range and IC50. All cAMP data was normalised to a forskolin concentration-response curve ran in parallel to each assay.

rA2AR = target: T2, rA2AR (Rattus norvegicus, UniProt P30543); experiment: cAMP accumulation in CHO-K1-rA2AR cells; assay type: cell-based
T2 construct: expressed in transfected cells
T2 sequence (P30543 whole entry): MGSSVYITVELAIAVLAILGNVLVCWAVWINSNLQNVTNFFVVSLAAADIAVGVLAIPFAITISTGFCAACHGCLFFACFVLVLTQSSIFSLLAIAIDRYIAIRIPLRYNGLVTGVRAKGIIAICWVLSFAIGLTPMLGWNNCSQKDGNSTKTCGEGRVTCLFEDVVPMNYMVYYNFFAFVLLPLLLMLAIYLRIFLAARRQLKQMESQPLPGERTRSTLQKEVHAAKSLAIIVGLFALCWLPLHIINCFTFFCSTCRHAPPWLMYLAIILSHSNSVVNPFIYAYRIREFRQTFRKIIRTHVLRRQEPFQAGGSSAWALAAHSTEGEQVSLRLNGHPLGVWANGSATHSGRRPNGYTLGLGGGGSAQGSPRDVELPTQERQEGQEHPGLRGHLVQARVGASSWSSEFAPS

hA3R = target: T3, hA3R (Homo sapiens, UniProt P0DMS8); experiment: cAMP inhibition at hA3R; assay type: cell-based; conditions: for Range hA3R: range of response as percentage of response to 10 μM forskolin
T3 construct: expressed in transfected cells; host or cells: CHO-K1
T3 sequence (P0DMS8 1-318): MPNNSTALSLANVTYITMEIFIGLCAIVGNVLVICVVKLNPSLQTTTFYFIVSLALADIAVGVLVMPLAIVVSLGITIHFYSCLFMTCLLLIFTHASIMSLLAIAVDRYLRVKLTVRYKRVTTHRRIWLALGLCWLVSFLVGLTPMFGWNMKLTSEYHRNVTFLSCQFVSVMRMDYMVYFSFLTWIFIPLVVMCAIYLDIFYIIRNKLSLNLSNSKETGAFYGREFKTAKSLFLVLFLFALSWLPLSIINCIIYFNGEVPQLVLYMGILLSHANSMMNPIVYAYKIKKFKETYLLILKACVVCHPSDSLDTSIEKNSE
Description: (§1) CHO cell lines expressing ARs of interest (including mutants of the hA1R) were routinely cultured in Ham’s F-12 nutrient mix supplemented with 10% foetal bovine serum (FBS), at 37 °C with 5% CO2, in a humidified atmosphere.

hA1R:Gob [2] = target: T1, hA1R:Gob; experiment: TRUPATH G protein dissociation BRET assay, Gob; assay type: cell-based; set-up: cDNA resource centre (pcDNA3.1-A1R); conditions: for activation of Gob vs Goa: TRUPATH assay; for EC50: Fig2h
Description: Cells were plated in a density of 1,500,000 cells/well in a 6-well plate and grown in DMEM /F-12 GlutaMAX™ media (Thermo Fisher Scientific, UK) supplemented with 10% FBS (Sigma, UK) and 1% AA (Sigma, UK). After being grown overnight, cells in each well were transfected using polyethylenimine 25 kDa (PEI, Polysciences Inc., Germany) at a 6:1 ratio of PEI to DNA, diluted in 150 mM NaCl. […] Gɑ (either Goa-RLuc8, or Gob-RLuc8), Gβ3 and Gγ8-GFP2 constructs were purchased as part of the TRUPATH sensor kit from Addgene, pcDNA3.1-A1R was obtained from cDNA resource centre, and pcDNA3.1 (-) zeo was purchased from Invitrogen. After 24 h, cells were trypsinised and re-seeded onto poly-L-lysine (PLL)-coated white 96-well plates (Greiner, UK) at the density of 50,000 cells/well in a complete DMEM/F-12 medium. After grown overnight, the culture media was discarded and replaced with 80 μl assay buffer (1× Hank’s balanced salt solution (HBSS) with calcium, supplemented with 20 mM HEPES and 0.1% BSA at pH 7.4). The assay was started by adding 10 μl of coelenterazine 400a (Nanolight technology, USA) to a final concentration of 5 μM. The plates were then incubated in the dark for 5 min, prior to the addition of 10 μl compounds (in a range of 0.01 nM – 1 µM). In order to investigate the effect of interfering peptides on Goa and Gob activation, cells were transfected with the TRUPATH constructs for Goa and Gob with the A1R as described above. However, the vector was replaced by either interfering or scrambled peptides, as appropriate, with increasing concentration: 0, 100, and 400 ng and was complemented by pcDNA3.1(-) up to 400 ng. […] BRET signal was recorded for 30 min on a Mithras LB940 plate reader allowing sequential integration of signal detected from GFP2 and Rluc8.
Target sequence in this assay (P30542 whole entry): as the sequence (P30542 whole entry) above
Target sequence in this assay (P09471 2-354 isoform P09471-2 partner limits assumed): as the sequence (P09471 2-354 isoform P09471-2 C351I partner limits assumed) above, with I350C counted along it
Target sequence in this assay (P16520 whole entry partner): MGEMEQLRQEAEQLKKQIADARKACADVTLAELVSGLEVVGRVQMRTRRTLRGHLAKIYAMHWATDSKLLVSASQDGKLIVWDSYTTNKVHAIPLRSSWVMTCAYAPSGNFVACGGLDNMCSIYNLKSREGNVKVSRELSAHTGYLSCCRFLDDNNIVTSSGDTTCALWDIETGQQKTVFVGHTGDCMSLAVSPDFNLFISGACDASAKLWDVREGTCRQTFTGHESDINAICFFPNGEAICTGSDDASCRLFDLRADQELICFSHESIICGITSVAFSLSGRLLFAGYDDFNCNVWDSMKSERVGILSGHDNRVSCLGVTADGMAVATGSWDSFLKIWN
Target sequence in this assay (Q9UK08 1-67 partner limits assumed): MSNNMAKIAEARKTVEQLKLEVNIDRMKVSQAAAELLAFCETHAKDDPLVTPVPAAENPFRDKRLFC

[3] = target: β-arrestin1 recruitment to hA1R (Homo sapiens, UniProt P30542); experiment: BRET β-arrestin1 recruitment to A1R, HEK 293T; assay type: cell-based
Sequence of β-arrestin1 recruitment to hA1R (P30542 whole entry): as the sequence (P30542 whole entry) above

hA2AR = target: T4, hA2AR (Homo sapiens, UniProt P29274); experiment: cAMP accumulation at hA2AR; assay type: cell-based
T4 construct: expressed in transfected cells; host or cells: CHO-K1
T4 sequence (P29274 whole entry): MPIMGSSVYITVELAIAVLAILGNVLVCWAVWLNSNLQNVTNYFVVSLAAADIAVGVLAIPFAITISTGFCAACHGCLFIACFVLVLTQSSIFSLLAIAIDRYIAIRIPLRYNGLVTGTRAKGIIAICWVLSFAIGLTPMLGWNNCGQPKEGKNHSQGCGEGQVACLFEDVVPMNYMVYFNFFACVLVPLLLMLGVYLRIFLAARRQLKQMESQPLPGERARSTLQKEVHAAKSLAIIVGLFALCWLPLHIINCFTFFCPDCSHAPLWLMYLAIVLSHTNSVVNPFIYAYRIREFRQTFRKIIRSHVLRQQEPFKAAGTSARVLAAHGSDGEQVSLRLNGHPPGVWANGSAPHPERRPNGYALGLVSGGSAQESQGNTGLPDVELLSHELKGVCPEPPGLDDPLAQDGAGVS
Description: as §1

[4] = Fig6g, average, n 4, CPA alone or CPA + BnOCPA
[5] = Fig6g, individual animal, CPA alone or CPA + BnOCPA
[6] = range of response as percentage of response to 10 μM forskolin

OC[C@H]1O[C@@H](n2cnc3c(NC4CCCC4)ncnc32)[C@H](O)[C@@H]1O [CPA, N^6-Cyclopentyladenosine]
tidal volume VT after injection (respiration (f, VT, VE); CPA 6 µg kg^−1 IV, resting 1.1 ± 0.1): 0.8 ± 0.1 mL
respiratory frequency f after injection (respiration (f, VT, VE); CPA 6 µg kg^−1 IV, resting 143 ± 11): 108 ± 10 BrPM
minute ventilation VE after injection (respiration (f, VT, VE); CPA 6 µg kg^−1 IV, resting 155 ± 28): 99 ± 19 mL/min
effect on Freq (difference from previous baseline) (respiration (f, VT, VE); CPA 6 µg kg^−1 alone): 52 ± 8 breaths/min
effect on VE (difference from previous baseline) (respiration (f, VT, VE); CPA 6 µg kg^−1 alone): 59 ± 9 mL/min
Frequency (respiration) (respiration (f, VT, VE); Fig6b, individual rat): 97.7 and 153.2 and 77.8 and 92.8 and 134.8 and 131.4 and 100.3 and 76.5
Frequency (respiration), Average (respiration (f, VT, VE); Fig6b, n 8): 108.1
VT (respiration (f, VT, VE); Fig6c, individual rat): 1 and 1.31 and 0.72 and 0.49 and 0.42 and 0.81 and 1.39
VT, Average (respiration (f, VT, VE); Fig6c, n 8): 0.82
Freq, Average (respiration (f, VT, VE); [4]): -52
VE, Average (respiration (f, VT, VE); [4]): -59
VT, Average (respiration (f, VT, VE); [4]): -0.065
Freq (respiration (f, VT, VE); [5]): -58 and -41 and -36 and -72
VE (respiration (f, VT, VE); [5]): -86 and -53 and -48 and -49
VT (respiration (f, VT, VE); [5]): -0.31 and 0.1 and -0.15
VE (respiration (f, VT, VE); Fig6d, individual rat): 110 and 203 and 69 and 42 and 63 and 139 and 46 and 116
VE, Average (respiration (f, VT, VE); Fig6d, n 8): 99
cAMP accumulation, PTX-insensitive Gob (Fig. 2b) (hA1R:Gob [1]; Log[Agonist] -6): -30.7 and -34.041 and -25.068 and -30.1931 and -28.2815 and -42.9468 and -23.6463
cAMP accumulation, PTX-insensitive Gob (Fig. 2b) (hA1R:Gob [1]; Log[Agonist] -6.5): -29.1 and -23.2817 and -30.2927 and -27.2185 and -29.2939 and -35.2937 and -29.3947
cAMP accumulation, PTX-insensitive Gob (Fig. 2b) (hA1R:Gob [1]; Log[Agonist] -7): -11.3 and -6.131 and -4.497 and -15.3895 and -20.4135 and -9.305
cAMP accumulation, PTX-insensitive Gob (Fig. 2b) (hA1R:Gob [1]; Log[Agonist] -7.5): -3.4 and 0.1928 and -6.183 and -4.138 and -8.294 and -3.294
cAMP accumulation, PTX-insensitive Gob (Fig. 2b) (hA1R:Gob [1]; Log[Agonist] -8): 0.0 and 0 (6×)
cAMP accumulation, PTX-insensitive Gob (Fig. 2b) (hA1R:Gob [1]; Log[Agonist] -8.5): 0.0 and 0 (6×)
cAMP accumulation, PTX-insensitive Gob (Fig. 2b) (hA1R:Gob [1]; Log[Agonist] -9): 0 (6×) and 0.0
cAMP accumulation, PTX-insensitive Gob (Fig. 2b) (hA1R:Gob [1]; Log[Agonist] -10): 0 (6×) and 0.0
Emax (hA1R:Gob [1]): -31.8%
Bias factor (Δ(τ/KA)) Gob (hA1R:Gob [1]): 2.263
EC50 (rA2AR): 2820 nM
Range rA2AR (rA2AR): 39.45 ± 3.47%
pIC50 hA3R (hA3R; half-maximal response, cAMP inhibition): N.R.
Range hA3R (hA3R): N.R.
activation of Gob vs Goa (hA1R:Gob [2]): equipotent activation of both Goa and Gob
β-arrestin1 recruitment at the A1R [3]: no β-arrestin recruitment

OC[C@H]1O[C@@H](n2cnc3c(N[C@@H]4CCC[C@H]4O)ncnc32)[C@H](O)[C@@H]1O [HOCPA, (2 R,3 R,4 S,5 R)−2-(6-{[(1 R,2 R)−2-hydroxycyclopentyl]amino}−9H-purin-9-yl)−5-(hydroxymethyl)oxolane-3,4-diol]
EC50 (hA2AR; half-maximal response, cAMP, read-out: pEC50 hA2AR (converted)): 3240 nM
Range hA2AR (hA2AR; [6]): 41.66 ± 6.1%
EC50 (hA1R:Gob [1]): 603 nM
Emax (hA1R:Gob [1]): -35.5%
Bias factor (Δ(τ/KA)) Gob (hA1R:Gob [1]): 11.4176
EC50 (rA2AR; half-maximal response, cAMP, read-out: pEC50 rA2AR (converted)): 2040 nM
Range rA2AR (rA2AR; [6]): 48.61 ± 6.42%
IC50 (hA3R; half-maximal response, cAMP inhibition, read-out: pIC50 hA3R (converted)): 24.5 nM
Range hA3R (hA3R): 45.0 ± 2.1%
EC50 (hA1R:Gob [2]; individual replicate, read-out: TRUPATH Gob potency (converted)): 132 nM and 51.3 nM and 38 nM and 46.8 nM and 61.7 nM and 50.1 nM and 52.5 nM
EC50 (hA1R:Gob [2]; n 8, read-out: TRUPATH Gob potency, Average (converted)): 57.5 nM
activation of Gob vs Goa (hA1R:Gob [2]): equipotent activation of both Goa and Gob
